Reference: patent US9745299B2, “Substituted tricyclic benzimidazoles as kinase inhibitors” (SELVITA SA, priority 2012, dated 2017)
Structures can show the parent of a compound that is named as a salt.

Tests used:
CDK8/CyclinC = biological target: T1, CDK8/CyclinC (Homo sapiens, UniProt P49336); test: ADP-Glo Kinase Assay, CDK8/CyclinC; format: biochemical; settings: read-out: % inhibition at 1 μM CDK8/CyclinC; further: ATP at apparent Km (53 µM)
T1 construct: purchased ProQinase, Freiburg, Germany
T1 sequence (P49336 whole entry): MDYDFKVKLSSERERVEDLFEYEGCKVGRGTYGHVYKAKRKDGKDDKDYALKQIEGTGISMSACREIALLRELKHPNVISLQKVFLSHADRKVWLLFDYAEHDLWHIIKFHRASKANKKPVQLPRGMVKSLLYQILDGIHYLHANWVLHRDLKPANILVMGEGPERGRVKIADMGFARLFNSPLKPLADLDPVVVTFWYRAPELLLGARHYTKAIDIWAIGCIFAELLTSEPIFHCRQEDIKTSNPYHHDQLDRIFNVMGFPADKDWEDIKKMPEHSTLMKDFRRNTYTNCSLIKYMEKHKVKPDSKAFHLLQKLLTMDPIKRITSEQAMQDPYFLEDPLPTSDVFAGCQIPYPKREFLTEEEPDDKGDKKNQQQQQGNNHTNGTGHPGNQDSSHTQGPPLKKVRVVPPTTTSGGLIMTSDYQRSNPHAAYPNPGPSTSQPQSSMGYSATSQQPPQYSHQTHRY
T1 sequence (P24863 whole entry partner): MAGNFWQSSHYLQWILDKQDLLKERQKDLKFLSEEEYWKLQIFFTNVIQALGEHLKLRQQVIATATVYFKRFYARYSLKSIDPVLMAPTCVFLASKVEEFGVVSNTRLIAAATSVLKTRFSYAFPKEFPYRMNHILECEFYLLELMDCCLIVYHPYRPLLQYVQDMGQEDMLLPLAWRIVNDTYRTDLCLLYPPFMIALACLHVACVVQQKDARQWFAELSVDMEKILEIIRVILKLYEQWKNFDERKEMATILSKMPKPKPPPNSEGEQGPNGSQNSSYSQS
Experimental: (§1) Testing of the compounds described in this invention was carried out using the ADP-Glo™ Kinase Assay from Promega Corporation (Madison, Wis., USA).
(§2) The ADP-Glo™ Kinase Assay is a luminescent ADP detection assay to measure kinase activity by quantifying the amount of ADP produced during a kinase reaction. The kinase assay is performed in kinase assay buffer (5 mM MOPS, pH 7.5, 5 mM MgCl2, 0.4 mM EDTA, 1.5 mM DTT). Test samples initially dissolved in DMSO at 10 mM were diluted with the assay buffer to 1000 nM. A 30 μL volume/well of a mixture of substrates containing ATP (final ATP concentration in each kinase assay was equal to its apparent ATP Km).
(§3) The assay was performed in two steps: first, after the kinase reaction, an equal volume of ADP-Glo™ Reagent was added to terminate the kinase reaction and deplete the remaining ATP. Second, the Kinase Detection Reagent was added to simultaneously convert ADP to ATP and allowed the newly synthesized ATP to be measured using a luciferase/luciferin reaction. The luminescent signal generated was proportional to the ADP concentration produced and was correlated with kinase activity.

CDK9/CyclinT = biological target: T2, CDK9/CyclinT (Homo sapiens, UniProt P50750); test: ADP-Glo Kinase Assay, CDK9/CyclinT; format: biochemical; settings: read-out: % inhibition at 1 μM CDK9/CyclinT; further: ATP at apparent Km (26 µM)
T2 construct: purchased Proqinase, Freiburg, Germany
T2 sequence (P50750 whole entry): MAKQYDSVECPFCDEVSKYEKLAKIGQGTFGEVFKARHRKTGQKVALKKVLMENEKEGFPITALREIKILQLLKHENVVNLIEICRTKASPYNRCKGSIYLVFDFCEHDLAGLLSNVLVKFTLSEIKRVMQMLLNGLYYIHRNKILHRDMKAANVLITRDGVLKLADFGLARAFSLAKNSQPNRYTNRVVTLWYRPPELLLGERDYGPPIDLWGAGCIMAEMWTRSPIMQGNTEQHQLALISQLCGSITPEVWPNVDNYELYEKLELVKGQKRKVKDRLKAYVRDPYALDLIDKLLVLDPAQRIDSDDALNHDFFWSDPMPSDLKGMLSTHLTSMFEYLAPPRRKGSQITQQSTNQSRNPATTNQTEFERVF
T2 sequence (O60563 whole entry partner): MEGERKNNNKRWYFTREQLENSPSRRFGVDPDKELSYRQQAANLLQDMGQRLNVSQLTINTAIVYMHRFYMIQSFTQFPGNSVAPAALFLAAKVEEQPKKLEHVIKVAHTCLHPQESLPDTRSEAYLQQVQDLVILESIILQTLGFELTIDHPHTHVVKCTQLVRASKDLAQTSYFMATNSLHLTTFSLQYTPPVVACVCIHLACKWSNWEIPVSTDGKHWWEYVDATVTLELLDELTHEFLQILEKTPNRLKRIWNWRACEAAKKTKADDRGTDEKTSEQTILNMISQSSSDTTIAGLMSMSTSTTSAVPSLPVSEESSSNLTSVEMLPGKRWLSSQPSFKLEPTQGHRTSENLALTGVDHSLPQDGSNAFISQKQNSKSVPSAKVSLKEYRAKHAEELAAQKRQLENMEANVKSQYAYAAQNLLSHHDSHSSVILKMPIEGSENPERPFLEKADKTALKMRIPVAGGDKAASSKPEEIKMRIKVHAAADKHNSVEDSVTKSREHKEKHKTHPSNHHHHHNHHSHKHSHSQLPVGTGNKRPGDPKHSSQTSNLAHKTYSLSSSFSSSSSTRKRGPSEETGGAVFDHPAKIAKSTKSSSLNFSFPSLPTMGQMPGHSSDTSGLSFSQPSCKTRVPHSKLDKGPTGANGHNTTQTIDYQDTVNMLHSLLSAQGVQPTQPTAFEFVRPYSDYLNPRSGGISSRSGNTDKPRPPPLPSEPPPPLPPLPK
Experimental: as §1, §2, §3

CDK1/CyclinB = biological target: T3, CDK1/CyclinB (Homo sapiens, UniProt P06493); test: ADP-Glo Kinase Assay, CDK1/CyclinB; format: biochemical; settings: read-out: % inhibition at 1 μM CDK1/CyclinB; further: ATP at apparent Km (20 µM)
T3 construct: purchased Millipore, Billerica, Mass., USA
T3 sequence (P06493 whole entry): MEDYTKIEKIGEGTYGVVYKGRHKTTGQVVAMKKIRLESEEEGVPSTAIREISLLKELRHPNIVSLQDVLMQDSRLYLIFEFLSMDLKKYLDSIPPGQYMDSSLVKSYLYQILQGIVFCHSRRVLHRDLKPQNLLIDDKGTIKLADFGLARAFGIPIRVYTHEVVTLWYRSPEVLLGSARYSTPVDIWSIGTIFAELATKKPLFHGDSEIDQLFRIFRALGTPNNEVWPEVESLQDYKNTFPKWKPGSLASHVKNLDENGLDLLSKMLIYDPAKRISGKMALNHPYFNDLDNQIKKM
T3 sequence (P14635 whole entry partner): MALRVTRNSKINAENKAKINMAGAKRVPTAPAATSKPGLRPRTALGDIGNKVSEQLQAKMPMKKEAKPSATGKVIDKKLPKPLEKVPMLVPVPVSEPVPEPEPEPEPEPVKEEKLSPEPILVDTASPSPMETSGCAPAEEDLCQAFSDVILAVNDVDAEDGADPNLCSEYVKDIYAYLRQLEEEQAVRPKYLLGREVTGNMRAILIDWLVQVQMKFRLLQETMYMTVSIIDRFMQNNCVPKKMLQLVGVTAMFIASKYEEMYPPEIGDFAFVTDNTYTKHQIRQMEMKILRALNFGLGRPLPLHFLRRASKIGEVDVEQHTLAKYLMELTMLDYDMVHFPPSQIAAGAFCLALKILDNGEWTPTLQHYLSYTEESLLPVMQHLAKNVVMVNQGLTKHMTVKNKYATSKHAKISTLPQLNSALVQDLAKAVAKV
Experimental: Testing of the compounds described in this invention was carried out using the ADP-Glo™ Kinase Assay from Promega Corporation (Madison, Wis., USA). […] The ADP-Glo™ Kinase Assay is a luminescent ADP detection assay to measure kinase activity by quantifying the amount of ADP produced during a kinase reaction. The kinase assay is performed in kinase assay buffer (5 mM MOPS, pH 7.5, 5 mM MgCl2, 0.4 mM EDTA, 1.5 mM DTT). Test samples initially dissolved in DMSO at 10 mM were diluted with the assay buffer to 1000 nM. A 30 μL volume/well of a mixture of substrates containing ATP (final ATP concentration in each kinase assay was equal to its apparent ATP Km). […] The assay was performed in two steps: first, after the kinase reaction, an equal volume of ADP-Glo™ Reagent was added to terminate the kinase reaction and deplete the remaining ATP. Second, the Kinase Detection Reagent was added to simultaneously convert ADP to ATP and allowed the newly synthesized ATP to be measured using a luciferase/luciferin reaction. The luminescent signal generated was proportional to the ADP concentration produced and was correlated with kinase activity.

CDK2/CyclinE = biological target: T4, CDK2/CyclinE (Homo sapiens, UniProt P24941); test: ADP-Glo Kinase Assay, CDK2/CyclinE; format: biochemical; settings: read-out: % inhibition at 1 μM CDK2/CyclinE
T4 construct: purchased Millipore, Billerica, Mass., USA
Experimental: as §1, §2, §3

CDK5/p25 = biological target: T5, CDK5/p25 (Homo sapiens, UniProt Q00535); test: ADP-Glo Kinase Assay, CDK5/p25; format: biochemical; settings: read-out: % inhibition at 1 μM CDK5/p25; further: ATP at apparent Km (12 µM)
T5 construct: purchased Millipore, Billerica, Mass., USA
T5 sequence (Q00535 whole entry): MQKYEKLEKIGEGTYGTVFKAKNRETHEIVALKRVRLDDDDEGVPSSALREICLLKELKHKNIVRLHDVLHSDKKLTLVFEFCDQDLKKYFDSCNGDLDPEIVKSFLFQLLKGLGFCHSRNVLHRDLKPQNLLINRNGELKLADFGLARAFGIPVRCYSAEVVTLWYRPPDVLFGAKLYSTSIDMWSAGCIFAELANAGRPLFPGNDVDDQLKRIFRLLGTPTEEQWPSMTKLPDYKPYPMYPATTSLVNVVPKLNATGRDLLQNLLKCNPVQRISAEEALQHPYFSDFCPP
T5 sequence (Q15078 99-307 partner limits assumed): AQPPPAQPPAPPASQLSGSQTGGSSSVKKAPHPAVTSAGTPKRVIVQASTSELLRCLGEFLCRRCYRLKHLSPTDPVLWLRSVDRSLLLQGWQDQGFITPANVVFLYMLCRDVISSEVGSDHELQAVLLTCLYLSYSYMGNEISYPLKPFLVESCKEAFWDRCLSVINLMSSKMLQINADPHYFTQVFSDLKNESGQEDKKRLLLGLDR
Experimental: as §1, §2, §3

CDK7/CyclinH/MAT1 = biological target: T6, CDK7/CyclinH/MAT1 (Homo sapiens, UniProt P50613); test: ADP-Glo Kinase Assay, CDK7/CyclinH/MAT1; format: biochemical; settings: read-out: % inhibition at 1 μM CDK7/CyclinH/MAT1
T6 construct: purchased Millipore, Billerica, Mass., USA
T6 sequence (P50613 whole entry): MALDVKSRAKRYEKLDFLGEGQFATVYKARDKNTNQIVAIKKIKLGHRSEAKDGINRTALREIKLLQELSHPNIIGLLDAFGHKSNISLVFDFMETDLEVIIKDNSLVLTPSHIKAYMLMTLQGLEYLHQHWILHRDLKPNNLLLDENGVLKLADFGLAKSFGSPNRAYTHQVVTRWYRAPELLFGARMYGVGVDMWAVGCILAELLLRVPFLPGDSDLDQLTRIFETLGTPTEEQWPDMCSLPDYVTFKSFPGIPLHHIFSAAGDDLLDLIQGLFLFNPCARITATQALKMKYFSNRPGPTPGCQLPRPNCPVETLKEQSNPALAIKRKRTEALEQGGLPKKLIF
T6 sequence (P51946 whole entry partner): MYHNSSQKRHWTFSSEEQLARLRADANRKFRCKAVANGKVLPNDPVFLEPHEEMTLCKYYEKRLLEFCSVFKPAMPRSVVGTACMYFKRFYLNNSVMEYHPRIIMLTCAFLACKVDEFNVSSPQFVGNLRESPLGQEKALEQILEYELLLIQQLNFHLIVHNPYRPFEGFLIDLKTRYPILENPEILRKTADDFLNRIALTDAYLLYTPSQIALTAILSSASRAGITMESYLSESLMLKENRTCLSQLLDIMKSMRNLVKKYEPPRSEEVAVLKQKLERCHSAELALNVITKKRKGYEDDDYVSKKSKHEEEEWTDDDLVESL
T6 sequence (P51948 whole entry partner): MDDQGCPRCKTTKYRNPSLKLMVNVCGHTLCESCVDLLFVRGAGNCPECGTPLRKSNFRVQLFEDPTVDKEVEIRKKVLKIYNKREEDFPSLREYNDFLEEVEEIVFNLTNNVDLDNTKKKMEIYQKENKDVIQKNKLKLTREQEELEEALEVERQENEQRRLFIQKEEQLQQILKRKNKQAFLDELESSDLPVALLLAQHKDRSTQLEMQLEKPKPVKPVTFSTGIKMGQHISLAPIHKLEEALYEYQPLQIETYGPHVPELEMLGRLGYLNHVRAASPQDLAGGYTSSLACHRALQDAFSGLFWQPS
Experimental: as §1, §2, §3

HCT116 cells = test: MTS viability assay, HCT116; format: cell-based; settings: Homo sapiens, HCT-116, HCT116, 72 hour incubation, read-out: IC50 [μM] HCT116 ED50
Text: (§4) The viability of CDK8 expressing cells can be evaluated using a tetrazolium salt reduction cell-based assay. In viable cells this colorimetric assay can measure mitochondrial reduction of a tetrazolium component (MTS) into an […] formazan product. For MTS viability assay, human colon cancer cell lines were used (SW480 and HCT116 cell lines), containing elevated levels of CDK8 protein and highly dependent on its expression for proliferation [see, Firenstein et al. Nature 455 (25):547-551, (2008)]. These cell lines were used to determine the activity of the compounds provided herein to inhibit CDK8 in intact cells. Human tumor cell lines were obtained from ATCC (Rockville Md. USA). In each case, and by methods known to those practiced in the art of cell culture, vaiability was measured after 72 hour incubation with the compounds provided herein using a standard MTS protocol (CellTiter 96® AQueous Non-Radioactive Cell Proliferation Assay).
(§5) Briefly, cells were plated at 10,000-20,000 cells per well in DMEM medium supplemented with 10% fetal bovine serum. The compound plate was set up by aliquoting into column 1 of a 96-well plate, the negative control (DMSO), aliquoting into column 12 the positive control, and titrating the test compound in serial dilutions into columns 2-11. An aliquot from each well of the compound plate was transferred to the plated cells and then incubated at 37° C. in 5% CO2. 20 μL of MTS tetrazolium was added to each well of optical plate and the cells were incubated at 37° C. in 5% CO2 for 2 hours. The absorbance was measured at 490 nm using a microplate reader.

SW480 cells = test: MTS viability assay, SW480; format: cell-based; settings: Homo sapiens, SW480, 72 hour incubation, read-out: IC50 [μM] SW-480 ED50
Text: as §4, §5

Structure (SMILES) | inhibition at 1 µM (CDK8/CyclinC) [%] | inhibition at 1 µM (CDK9/CyclinT) [%] | inhibition at 1 µM (CDK1/CyclinB) [%] | inhibition at 1 µM (CDK2/CyclinE) [%] | inhibition at 1 µM (CDK5/p25) [%] | inhibition at 1 µM (CDK7/CyclinH/MAT1) [%] | IC50 (HCT116 cells) [µM] | IC50 (SW480 cells) [µM]
NCCNc1nc2c(Br)c(Br)c(Br)c3c2n1CCC3 [Example 1A, N-(7,8,9-tribromo-5,6-dihydro-4H-imidazo[4,5,1-ij]quinolin-2-yl)ethane-1,2-diamine hydrochloride] | 52 | 33 | 0 | 0 | 0 | 0 | 1.2 | 1.9
NCCCNc1nc2c(Br)c(Br)c(Br)c3c2n1CCC3 [Example 1C] | 52 | 9 | 0 | 8 |  |  |  | 
NCCNc1nc2c(I)c(Br)c(Br)c3c2n1CCC3 [Example 1W] | 100 | 13 | 7 | 0 | 2 | 0 |  | 
O=[N+]([O-])c1c(Br)c(Br)c2c3c1nc(N1CCNCC1)n3CCC2 [Example 1X] | 71 | 9 | 15 | 8 | 27 | 0 | 6.7 | 1.4
Brc1c(Br)c2c3c(nc(N4CCNCC4)n3CCC2)c1I [Example 1Y] | 100 | 39 | 32 | 11 | 4 | 0 | 1.3 | 0.7
C[C@@H]1CN(c2nc3c(I)c(Br)c(Br)c4c3n2CCC4)CCN1 [Example 3AD] | 100 | 42 |  | 16 |  |  | 0.6 | 1.3
Brc1c(Br)c2c3c(nc(N4CCCCC4)n3CCC2)c1Br [Example 3D] | 87 | 20 | 2 | 0 | 0 | 11 |  | 
CCN(CC)c1nc2c(Br)c(Br)c(Br)c3c2n1CCC3 [Example 3I] | 85 | 14 | 0 | 0 | 14 | 0 | 6.8 | 5
Nc1nc2c(Br)c(Br)c(Br)c3c2n1CCC3 [Example 3J] | 58 | 34 | 0 | 1 | 53 | 0 |  | 
CC1CN(c2nc3c(Br)c(Br)c(Br)c4c3n2CCC4)CCN1 (stereo not drawn) [Example 3P] | 88 | 22 | 8 | 5 | 0 | 16 | 9.3 | 1.4
CC1CCCN1c1nc2c(Br)c(Br)c(Br)c3c2n1CCC3 (stereo not drawn) [Example 3R] | 100 | 4 | 0 | 0 | 4 | 36 |  | 
CC1(C)CN(c2nc3c(I)c(Br)c(Br)c4c3n2CCC4)CCN1 [Example 3W] | 92 | 10 |  | 8 |  |  | 1.5 | 1.4
CN1CCC(c2nc3c(Br)c(Br)c(Br)c4c3n2CCC4)CC1 [Example 7B] | 88 | 6 |  | 14 |  |  | 2.6 | 6.3
Brc1c(Br)c2c3c(nc(C4CCNCC4)n3CCC2)c1Br [Example 7E] | 94 | 39 | 43 | 22 | 5 | 15 | 0.3 | 0.6

Second part, the compound after the results:

inhibition at 1 µM (CDK8/CyclinC) [%] | inhibition at 1 µM (CDK9/CyclinT) [%] | inhibition at 1 µM (CDK1/CyclinB) [%] | inhibition at 1 µM (CDK2/CyclinE) [%] | inhibition at 1 µM (CDK5/p25) [%] | inhibition at 1 µM (CDK7/CyclinH/MAT1) [%] | IC50 (HCT116 cells) [µM] | IC50 (SW480 cells) [µM] | Structure (SMILES)
70 | 7 | 7 | 1 |  |  | 1.5 |  | Cc1c(Br)c2c3c(nc(N4CCNCC4)n3CCC2)c1Br [Example 1AX]
61 | 1 | 0 | 4 | 0 | 3 |  |  | OC1CCN(c2nc3c(Br)c(Br)c(Br)c4c3n2CCC4)CC1 [Example 3A, 1-(7,8,9-tribromo-5,6-dihydro-4H-imidazo[4,5,1-ij]quinolin-2-yl)piperidin-4-ol]
100 | 39 |  | 40 |  |  | 2.8 | 4 | CN1CCN(c2nc3c(I)c(Br)c(Br)c4c3n2CCC4)CC1 [Example 3AM]
75 | 17 | 7 | 2 | 36 | 0 | 1.2 | 2.3 | CN1CCN(c2nc3c(Br)c(Br)c(Br)c4c3n2CCC4)CC1 [Example 3M]
90 | 21 |  | 17 |  |  | 1.6 | 1.3 | C[C@H]1CN(c2nc3c(I)c(Br)c(Br)c4c3n2CCC4)CCN1 [Example 3T]
92 | 19 | 0 | 6 | 0 | 0 | 1.3 | 1.3 | Cc1c(Br)c(Br)c2c3c1nc(C1CCN(C)CC1)n3CCC2 [Example 7A, 7,8-dibromo-9-methyl-2-(1-methylpiperidin-4-yl)-5,6-dihydro-4H-imidazo[4,5,1-ij]quinoline hydrochloride]
83 | 20 | 0 | 7 | 0 | 0 | 1.1 | 0.9 | Cc1c(Br)c(Br)c2c3c1nc(C1CCNCC1)n3CCC2 [Example 7C]
90 | 20 |  | 0 |  |  | 1.7 | 4.1 | N#Cc1c(Br)c(Br)c2c3c1nc(N1CCNCC1)n3CCC2 [Example 8B]
